The source made the active and inactive calls. No rule for the calls is given here.
Tested on: CCRIS mutagenicity, Ames/micronucleus/aberration tests
Experiment: CCRIS mutagenicity studies
[1] = Test System: AMES SALMONELLA TYPHIMURIUM, Strain/Indicator: TA98, Metabolic Activation: NONE, Method: PREINCUBATION
[2] = Test System: AMES SALMONELLA TYPHIMURIUM, Strain/Indicator: TA100, Metabolic Activation: NONE, Method: PREINCUBATION
[3] = Test System: AMES SALMONELLA TYPHIMURIUM, Strain/Indicator: TA1535, Metabolic Activation: NONE, Method: PREINCUBATION
[4] = Test System: AMES SALMONELLA TYPHIMURIUM, Strain/Indicator: TA1537, Metabolic Activation: NONE, Method: PREINCUBATION
[5] = Test System: AMES SALMONELLA TYPHIMURIUM, Strain/Indicator: TA98, Metabolic Activation: HAMSTER, LIVER, S-9, AROCLOR 1254 (10%), Method: PREINCUBATION
[6] = Test System: AMES SALMONELLA TYPHIMURIUM, Strain/Indicator: TA98, Metabolic Activation: RAT, LIVER, S-9, AROCLOR 1254 (10%), Method: PREINCUBATION
[7] = Test System: AMES SALMONELLA TYPHIMURIUM, Strain/Indicator: TA100, Metabolic Activation: HAMSTER, LIVER, S-9, AROCLOR 1254 (10%), Method: PREINCUBATION
[8] = Test System: AMES SALMONELLA TYPHIMURIUM, Strain/Indicator: TA100, Metabolic Activation: RAT, LIVER, S-9, AROCLOR 1254 (10%), Method: PREINCUBATION
[9] = Test System: AMES SALMONELLA TYPHIMURIUM, Strain/Indicator: TA1535, Metabolic Activation: HAMSTER, LIVER, S-9, AROCLOR 1254 (10%), Method: PREINCUBATION
[10] = Test System: AMES SALMONELLA TYPHIMURIUM, Strain/Indicator: TA1535, Metabolic Activation: RAT, LIVER, S-9, AROCLOR 1254 (10%), Method: PREINCUBATION

## Nc1cc(S(=O)(=O)O)c2cccc(S(=O)(=O)O)c2c1
[1]
  mutagenic call: inactive; negative
Test System: AMES SALMONELLA TYPHIMURIUM, Strain/Indicator: TA98, Metabolic Activation: RAT LIVER S-9, PHENOBARBITAL AND BETA-NAPHTHOFLAVONE, Method: PREINCUBATION
  mutagenic call: inactive; negative
[2]
  mutagenic call: inactive; negative
Test System: AMES SALMONELLA TYPHIMURIUM, Strain/Indicator: TA100, Metabolic Activation: RAT LIVER S-9, PHENOBARBITAL AND BETA-NAPHTHOFLAVONE, Method: PREINCUBATION
  mutagenic call: inactive; negative
[3]
  mutagenic call: inactive; negative
Test System: AMES SALMONELLA TYPHIMURIUM, Strain/Indicator: TA1535, Metabolic Activation: RAT LIVER S-9, PHENOBARBITAL AND BETA-NAPHTHOFLAVONE, Method: PREINCUBATION
  mutagenic call: inactive; negative
[4]
  mutagenic call: inactive; negative
Test System: AMES SALMONELLA TYPHIMURIUM, Strain/Indicator: TA1537, Metabolic Activation: RAT LIVER S-9, PHENOBARBITAL AND BETA-NAPHTHOFLAVONE, Method: PREINCUBATION
  mutagenic call: inactive; negative
Test System: AMES SALMONELLA TYPHIMURIUM, Strain/Indicator: TA1538, Metabolic Activation: NONE, Method: PREINCUBATION
  mutagenic call: inactive; negative
Test System: AMES SALMONELLA TYPHIMURIUM, Strain/Indicator: TA1538, Metabolic Activation: RAT LIVER S-9, PHENOBARBITAL AND BETA-NAPHTHOFLAVONE, Method: PREINCUBATION
  mutagenic call: inactive; negative
Test System: E.COLI, Strain/Indicator: WP2UVRA, Metabolic Activation: NONE, Method: PREINCUBATION
  mutagenic call: inactive; negative
Test System: E.COLI, Strain/Indicator: WP2UVRA, Metabolic Activation: RAT LIVER S-9, PHENOBARBITAL AND BETA-NAPHTHOFLAVONE, Method: PREINCUBATION
  mutagenic call: inactive; negative

## c1ccc2n[nH]nc2c1
Test System: AMES SALMONELLA TYPHIMURIUM, Strain/Indicator: TA97, Metabolic Activation: HAMSTER, LIVER, S-9, AROCLOR 1254 (10%), Method: PREINCUBATION
  mutagenic call: inactive; negative
Test System: AMES SALMONELLA TYPHIMURIUM, Strain/Indicator: TA97, Metabolic Activation: NONE, Method: PREINCUBATION
  mutagenic call: inactive; negative
Test System: AMES SALMONELLA TYPHIMURIUM, Strain/Indicator: TA97, Metabolic Activation: RAT, LIVER, S-9, AROCLOR 1254 (10%), Method: PREINCUBATION
  mutagenic call: inactive; negative
[5]
  mutagenic call: inactive; negative
[1]
  mutagenic call: inactive; negative
[6]
  mutagenic call: inactive; negative
[7]
  mutagenic call: inactive; negative
[2]
  mutagenic call: inactive; negative
[8]
  mutagenic call: inactive; negative
[9]
  mutagenic call: active; positive
[3]
  mutagenic call: inactive; negative
[10]
  mutagenic call: active; positive
Test System: E. COLI, Strain/Indicator: WP2 UVRA, Metabolic Activation: MOUSE, LIVER, S-9, AROCLOR 1254, Method: STANDARD PLATE
  mutagenic call: inactive; negative

## C=CC(=C)C
End Point: IN VIVO CHROMOSOMAL ABERRATIONS, Test System: BONE MARROW CELLS, Species: MOUSE, Strain/Sex: B6C3F1/MALE, Route: INHALATION
  mutagenic call: inactive; negative
End Point: IN VIVO MICRONUCLEUS, Test System: PERIPHERAL BLOOD LYMPHOCYTES, Species: MOUSE, Strain/Sex: B6C3F1/MALE, Route: INHALATION
  mutagenic call: active; positive
[5]
  mutagenic call: inactive; negative
[1]
  mutagenic call: inactive; negative
[6]
  mutagenic call: inactive; negative
Test System: AMES SALMONELLA TYPHIMURIUM, Strain/Indicator: TA98, Metabolic Activation: S-9, Method: PREINCUBATION
  mutagenic call: inactive; negative
[7]
  mutagenic call: inactive; negative
[2]
  mutagenic call: inactive; negative
[8]
  mutagenic call: inactive; negative
Test System: AMES SALMONELLA TYPHIMURIUM, Strain/Indicator: TA100, Metabolic Activation: S-9, Method: PREINCUBATION
  mutagenic call: inactive; negative
[9]
  mutagenic call: inactive; negative
[3]
  mutagenic call: inactive; negative
[10]
  mutagenic call: inactive; negative
Test System: AMES SALMONELLA TYPHIMURIUM, Strain/Indicator: TA1535, Metabolic Activation: S-9, Method: PREINCUBATION
  mutagenic call: inactive; negative
Test System: AMES SALMONELLA TYPHIMURIUM, Strain/Indicator: TA1537, Metabolic Activation: HAMSTER, LIVER, S-9, AROCLOR 1254 (10%), Method: PREINCUBATION
  mutagenic call: inactive; negative
[4]
  mutagenic call: inactive; negative
Test System: AMES SALMONELLA TYPHIMURIUM, Strain/Indicator: TA1537, Metabolic Activation: RAT, LIVER, S-9, AROCLOR 1254 (10%), Method: PREINCUBATION
  mutagenic call: inactive; negative
Test System: E.COLI, Strain/Indicator: WP2UVRA/PKM101, Metabolic Activation: NONE, Method: PREINCUBATION
  mutagenic call: inactive; negative
Test System: E.COLI, Strain/Indicator: WP2UVRA/PKM101, Metabolic Activation: S-9, Method: PREINCUBATION
  mutagenic call: inactive; negative

## COP(=O)(OC)SC
Test System: AMES SALMONELLA TYPHIMURIUM, Strain/Indicator: TA97, Metabolic Activation: NONE, Method: STANDARD PLATE
  mutagenic call: inactive; negative
Test System: AMES SALMONELLA TYPHIMURIUM, Strain/Indicator: TA97, Metabolic Activation: RAT, LIVER, S-9, AROCLOR 1254, Method: PREINCUBATION
  mutagenic call: inactive; negative
Test System: AMES SALMONELLA TYPHIMURIUM, Strain/Indicator: TA97, Metabolic Activation: RAT, LIVER, S-9, AROCLOR 1254, Method: STANDARD PLATE
  mutagenic call: inactive; negative
Test System: AMES SALMONELLA TYPHIMURIUM, Strain/Indicator: TA98, Metabolic Activation: NONE, Method: STANDARD PLATE
  mutagenic call: inactive; negative
Test System: AMES SALMONELLA TYPHIMURIUM, Strain/Indicator: TA98, Metabolic Activation: RAT, LIVER, S-9, AROCLOR 1254, Method: PREINCUBATION
  mutagenic call: inactive; negative
Test System: AMES SALMONELLA TYPHIMURIUM, Strain/Indicator: TA98, Metabolic Activation: RAT, LIVER, S-9, AROCLOR 1254, Method: STANDARD PLATE
  mutagenic call: inactive; negative
Test System: AMES SALMONELLA TYPHIMURIUM, Strain/Indicator: TA100, Metabolic Activation: NONE, Method: STANDARD PLATE
  mutagenic call: inactive; negative
Test System: AMES SALMONELLA TYPHIMURIUM, Strain/Indicator: TA100, Metabolic Activation: RAT, LIVER, S-9, AROCLOR 1254, Method: PREINCUBATION
  mutagenic call: inactive; negative
Test System: AMES SALMONELLA TYPHIMURIUM, Strain/Indicator: TA100, Metabolic Activation: RAT, LIVER, S-9, AROCLOR 1254, Method: STANDARD PLATE
  mutagenic call: inactive; negative

## O=C(O)Cc1ccccc1Cl
[1]
  mutagenic call: inactive; negative
Test System: AMES SALMONELLA TYPHIMURIUM, Strain/Indicator: TA98, Metabolic Activation: RAT LIVER S-9, PCB, Method: PREINCUBATION
  mutagenic call: inactive; negative
[2]
  mutagenic call: inactive; negative
Test System: AMES SALMONELLA TYPHIMURIUM, Strain/Indicator: TA100, Metabolic Activation: RAT LIVER S-9, PCB, Method: PREINCUBATION
  mutagenic call: inactive; negative
Test System: AMES SALMONELLA TYPHIMURIUM, Strain/Indicator: TA104, Metabolic Activation: NONE, Method: PREINCUBATION
  mutagenic call: inactive; negative
Test System: AMES SALMONELLA TYPHIMURIUM, Strain/Indicator: TA104, Metabolic Activation: RAT LIVER S-9, PCB, Method: PREINCUBATION
  mutagenic call: inactive; negative
Test System: E.COLI, Strain/Indicator: WP2 UVRA, Metabolic Activation: NONE, Method: PREINCUBATION
  mutagenic call: inactive; negative
Test System: E.COLI, Strain/Indicator: WP2 UVRA, Metabolic Activation: RAT LIVER S-9, PCB, Method: PREINCUBATION
  mutagenic call: inactive; negative

Reference: PubChem BioAssay AID1259407 (Chemical Carcinogenesis Research Information System (CCRIS), 2018)
